Target: rat mGlu2 (Rattus norvegicus (Rat), UniProt P31421)
Assay: mGlu2 Ca2+ flux assay
Assay type: cell-based
Settings: for IC50: Gα15 HEK293 cells stably expressing rat mGlu2, glutamate EC80, >10,000 = no plateau, >30,000 = no measurable activity; for remaining activity at 30 µM / rat mGlu2 Glu max: amplitude of response in the presence of 30 μM test compound as percentage of maximal response to glutamate; for remaining activity at 30 µM: read-out: rat mGlu2 Glu max
Procedure, shortened: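 Gα15 HEK293 cells stably expressing rat mGlu2, Fluo-4 loaded; compound added, then glutamate at EC20 after 2.3 min and EC80 afterward, calcium flux read as F/F0. Peak amplitude around EC80 addition normalized to glutamate max; IC50 by unconstrained 4-parameter fit, top concentration 30 μM.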

rat mGlu2, sequence (P31421 19-872): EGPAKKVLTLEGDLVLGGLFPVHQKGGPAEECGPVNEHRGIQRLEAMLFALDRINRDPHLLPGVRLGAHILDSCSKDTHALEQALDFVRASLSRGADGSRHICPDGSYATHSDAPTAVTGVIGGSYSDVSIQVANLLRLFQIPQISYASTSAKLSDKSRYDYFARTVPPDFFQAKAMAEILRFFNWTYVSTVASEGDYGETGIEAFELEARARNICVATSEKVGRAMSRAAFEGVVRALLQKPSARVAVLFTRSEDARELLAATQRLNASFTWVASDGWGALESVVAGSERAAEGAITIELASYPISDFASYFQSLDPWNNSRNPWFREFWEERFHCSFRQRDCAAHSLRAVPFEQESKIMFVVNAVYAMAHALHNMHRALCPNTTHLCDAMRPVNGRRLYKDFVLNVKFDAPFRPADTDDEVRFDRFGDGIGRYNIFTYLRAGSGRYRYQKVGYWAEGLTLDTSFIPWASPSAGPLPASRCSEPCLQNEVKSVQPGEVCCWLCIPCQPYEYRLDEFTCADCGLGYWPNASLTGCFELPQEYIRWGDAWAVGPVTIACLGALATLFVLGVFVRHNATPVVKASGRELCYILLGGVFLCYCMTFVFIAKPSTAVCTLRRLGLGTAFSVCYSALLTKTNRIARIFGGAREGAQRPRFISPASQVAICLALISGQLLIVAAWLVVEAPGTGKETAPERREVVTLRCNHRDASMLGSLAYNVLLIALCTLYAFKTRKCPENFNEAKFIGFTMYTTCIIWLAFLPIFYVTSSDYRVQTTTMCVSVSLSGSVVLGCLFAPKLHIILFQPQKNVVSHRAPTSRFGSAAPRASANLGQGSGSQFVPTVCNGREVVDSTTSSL

| Compound | IC50 [µM] | remaining activity at 30 µM [%] | NAM designation (concentration-dependent decrease in the glutamate EC80 response) | rat mGlu2 Glu max |
| --- | --- | --- | --- | --- |
| C[C@@H]1CN(CCCOc2cnc(C(N)=O)cc2-c2ccc(F)cc2)C[C@H](C)O1 [Compound 99, 5-(3-((cis)-2,6-dimethylmorpholino)propoxy)-4-(4-fluorophenyl)picolinamide] | > 10 | 15.8 |  |  |
| NC(=O)c1cc(-c2ccc(F)cc2)c(OCCCN2CCOCC2)cn1 [Compound 100, 4-(4-fluorophenyl)-5-(3-morpholinopropoxy)picolinamide] | > 10 | 46.8 |  |  |
| NC(=O)c1cc(-c2ccc(F)cc2)c(OCCOc2cc(Br)ccc2F)cn1 [Compound 101, 5-(2-(5-bromo-2-fluorophenoxy)ethoxy)-4-(4-fluorophenyl)picolinamide] | 4.26 | 1.85 |  |  |
| NC(=O)c1cc(-c2ccc(F)cc2)c(OCCOc2cc(F)cc(Br)c2)cn1 [Compound 102, 5-(2-(3-bromo-5-fluorophenoxy)ethoxy)-4-(4-fluorophenyl)picolinamide] | 5.24 | 3.34 |  |  |
| NC(=O)c1cc(-c2ccc(F)cc2)c(OCCOc2ccc(F)c(Br)c2)cn1 [Compound 103, 5-(2-(3-bromo-4-fluorophenoxy)ethoxy)-4-(4-fluorophenyl)picolinamide] | > 10 | 53.7 |  |  |
| NC(=O)c1cc(-c2ccc(F)cc2)c(OCCOc2cccc(Br)c2F)cn1 [Compound 104, 5-(2-(3-bromo-2-fluorophenoxy)ethoxy)-4-(4-fluorophenyl)picolinamide] | > 30 |  |  |  |
| NC(=O)c1cc(-c2ccc(F)cc2)c(OCCOc2ccccc2Br)cn1 [Compound 105, 5-(2-(2-bromophenoxy)ethoxy)-4-(4-fluorophenyl)picolinamide] | > 30 |  |  |  |
| NC(=O)c1cc(-c2ccc(F)cc2)c(OCCOc2cccc(Br)c2)cn1 [Compound 106, 5-(2-(3-bromophenoxy)ethoxy)-4-(4-fluorophenyl)picolinamide] | 3.44 | 26.5 | (Partial NAM) |  |
| NC(=O)c1cc(-c2ccc(F)cc2)c(OCCOc2ccc(F)cc2)cn1 [Compound 107, 5-(2-(4-fluorophenoxy)ethoxy)-4-(4-fluorophenyl)picolinamide] | 8.51 | -10.7 |  |  |
| NC(=O)c1cc(-c2ccc(F)cc2)c(OCCOc2cccc(F)c2)cn1 [Compound 108, 5-(2-(3-fluorophenoxy)ethoxy)-4-(4-fluorophenyl)picolinamide] | 2.38 | 1.95 |  |  |
| NC(=O)c1cc(-c2ccc(F)cc2)c(OCCOc2ccccc2F)cn1 [Compound 109, 5-(2-(2-fluorophenoxy)ethoxy)-4-(4-fluorophenyl)picolinamide] |  | 2.16 |  |  |
| Cc1ncc(OCCOc2cnc(C(N)=O)cc2-c2ccc(F)cc2)cn1 [Compound 119, 4-(4-fluorophenyl)-5-(2-((2-methylpyrimidin-5-yl)oxy)ethoxy)picolinamide] | > 10 | 20.3 |  |  |
| Cc1ncc(OC(C)COc2cnc(C(N)=O)cc2-c2ccc(F)cc2)cn1 (centres unmarked) [Compound 122, 4-(4-fluorophenyl)-5-(2-((2-methylpyrimidin-5-yl)oxy)propoxy)picolinamide] | > 10 | 8.04 |  |  |
| Cc1ncc(OCCCOc2cnc(C(N)=O)cc2-c2ccc(F)cc2)cn1 [Compound 125, 4-(4-fluorophenyl)-5-(3-((2-methylpyrimidin-5-yl)oxy)propoxy)picolinamide] | > 10 | 35.1 |  |  |
| NC(=O)c1cc(-c2ccc(F)cc2)c(OCCCOc2ccc(C(F)(F)F)nc2)cn1 [Compound 126] | 2.94 |  |  | 5.52% |
| NC(=O)c1cc(-c2ccc(F)cc2)c(OCCCOc2cccnc2)cn1 [Compound 128, 4-(4-fluorophenyl)-5-(3-(pyridin-3-yloxy)propoxy)picolinamide] | 3.78 | 2.52 |  |  |
| Cc1ccc(OCCCOc2cnc(C(N)=O)cc2-c2ccc(F)cc2)cn1 [Compound 129] | 2.87 |  |  | 2.91% |
| CN(CCOCc1cncc(F)c1)c1cnc(C(N)=O)cc1-c1ccc(F)cc1 [Compound 131, 4-(4-fluorophenyl)-5-((2-((5-fluoropyridin-3-yl)methoxy)ethyl)(methyl)amino)picolinamide] | 5.77 | 2.62 |  |  |
| NC(=O)c1cc(-c2ccc(F)cc2)c(NCCN2CCOCC2)cn1 [Compound 133, 4-(4-fluorophenyl)-5-((2-morpholinoethyl)amino)picolinamide] | 6.54 | -4.31 |  |  |
| CC(CN1CCOCC1)Nc1cnc(C(N)=O)cc1-c1ccc(F)cc1 (centres unmarked) [Compound 134, 4-(4-fluorophenyl)-5-((1-morpholinopropan-2-yl)amino)picolinamide] | 2.71 | -3.71 |  |  |
| CC(CNc1cnc(C(N)=O)cc1-c1ccc(F)cc1)N1CCOCC1 (centres unmarked) [Compound 135, 4-(4-fluorophenyl)-5-((2-morpholinopropyl)amino)picolinamide] | 5.7 | 1.19 |  |  |
| CN(CCN1CCOCC1)c1cnc(C(N)=O)cc1-c1ccc(F)cc1 [Compound 136, 4-(4-fluorophenyl)-5-(methyl(2-morpholinoethyl)amino)picolinamide] | > 10 | 31 |  |  |
| NC(=O)c1cc(-c2ccc(F)cc2)c(NCCCN2CCOCC2)cn1 [Compound 137, 4-(4-fluorophenyl)-5-((3-morpholinopropyl)amino)picolinamide] | 9.87 | -13.5 |  |  |
| NC(=O)c1cc(-c2ccc(F)cc2)c(N2CCC(Oc3ccnc(C(F)(F)F)c3)CC2)cn1 [Compound 138, 4-(4-fluorophenyl)-5-(4-((2-(trifluoromethyl)pyridin-4-yl)oxy)piperidin-1-yl)picolinamide] | > 10 |  |  |  |

More lines, in order of falling IC50, values ahead:

| IC50 [µM] | remaining activity at 30 µM [%] | NAM designation (concentration-dependent decrease in the glutamate EC80 response) | rat mGlu2 Glu max | Compound |
| --- | --- | --- | --- | --- |
| 2.25 | 9.91 |  |  | NC(=O)c1cc(-c2ccc(F)cc2)c(OCCOCc2ccccc2)cn1 [Compound 130, 5-(2-(benzyloxy)ethoxy)-4-(4-fluorophenyl)picolinamide] |
| 2.13 | 1.66 |  |  | Cc1ccc(OC(C)COc2cnc(C(N)=O)cc2-c2ccc(F)cc2)cn1 (centres unmarked) [Compound 121, 4-(4-fluorophenyl)-5-(2-((6-methylpyridin-3-yl)oxy)propoxy)picolinamide] |
| 1.72 | 38.7 |  |  | NC(=O)c1cc(-c2ccc(F)cc2)c(OCCOc2cc(F)cc(F)c2)cn1 [Compound 110, 5-(2-(3,5-difluorophenoxy)ethoxy)-4-(4-fluorophenyl)picolinamide] |
| 1.59 | 2.03 |  |  | NC(=O)c1cc(-c2ccc(F)cc2)c(OCCCOc2ccnc(C(F)(F)F)c2)cn1 [Compound 127, 4-(4-fluorophenyl)-5-(3-((2-(trifluoromethyl)pyridin-4-yl)oxy)propoxy)picolinamide] |
| 1.51 | 0.37 |  |  | CC(COc1cnc(C(N)=O)cc1-c1ccc(F)cc1)Oc1cccnc1 (centres unmarked) [Compound 123, 4-(4-fluorophenyl)-5-(2-(pyridin-3-yloxy)propoxy)picolinamide] |
| 1.31 | 3.64 |  |  | NC(=O)c1cc(-c2ccc(F)cc2)c(OCCOc2ccc(C(F)(F)F)nc2)cn1 [Compound 115, 4-(4-fluorophenyl)-5-(2-((6-(trifluoromethyl)pyridin-3-yl)oxy)ethoxy)picolinamide] |
| 1.05 | -1.48 |  |  | NC(=O)c1cc(-c2ccc(F)cc2)c(NCC2CCOCC2)cn1 [Compound 132, 4-(4-fluorophenyl)-5-(((tetrahydro-2H-pyran-4-yl)methyl)amino)picolinamide] |
| 0.835 | 0.75 |  |  | CC(COc1cnc(C(N)=O)cc1-c1ccc(F)cc1)Oc1ccnc(C(F)(F)F)c1 (centres unmarked) [Compound 124, 4-(4-fluorophenyl)-5-(2-((2-(trifluoromethyl)pyridin-4-yl)oxy)propoxy)picolinamide] |
| 0.827 |  |  | 0.05% | NC(=O)c1cc(-c2ccc(F)cc2)c(OCCOc2cncc(F)c2)cn1 [Compound 112] |
| 0.738 |  |  | 1.80% | Cc1ccc(OCCOc2cnc(C(N)=O)cc2-c2ccc(F)cc2)cn1 [Compound 114] |
| 0.624 | 1.34 |  |  | NC(=O)c1cc(-c2ccc(F)cc2)c(OCCOc2cncc(Br)c2)cn1 [Compound 111, 5-(2-((5-bromopyridin-3-yl)oxy)ethoxy)-4-(4-fluorophenyl)picolinamide] |
| 0.615 | 1.02 |  |  | NC(=O)c1cc(-c2ccc(F)cc2)c(OCCOc2ccnc(F)c2)cn1 [Compound 117, 4-(4-fluorophenyl)-5-(2-((2-fluoropyridin-4-yl)oxy)ethoxy)picolinamide] |
| 0.502 |  |  | 1.38 (n = 2) % | NC(=O)c1cc(-c2ccc(F)cc2)c(OCCOc2ccc(F)nc2)cn1 [Compound 113] |
| 0.483 | 1.72 |  |  | CC(COc1ccnc(C(F)(F)F)c1)Oc1cnc(C(N)=O)cc1-c1ccc(F)cc1 (centres unmarked) [Compound 120, 4-(4-fluorophenyl)-5-((1-((2-(trifluoromethyl)pyridin-4-yl)oxy)propan-2-yl)oxy)picolinamide] |
| 0.41 | 1.16 |  |  | Cc1cc(OCCOc2cnc(C(N)=O)cc2-c2ccc(F)cc2)ccn1 [Compound 118, 4-(4-fluorophenyl)-5-(2-((2-methylpyridin-4-yl)oxy)ethoxy)picolinamide] |
| 0.242 ± 0.083 | 1.51 ± 0.16 |  |  | NC(=O)c1cc(-c2ccc(F)cc2)c(OCCOc2ccnc(C(F)(F)F)c2)cn1 [Compound 116, 4-(4-fluorophenyl)-5-(2-((2-(trifluoromethyl)pyridin-4-yl)oxy)ethoxy)picolinamide] |

Source: US10538491B2, “4,5-substituted picolinamide and picolinonitrile metabotropic glutamate receptor 2 negative allosteric modulators” (Vanderbilt University, priority 2015, dated 2020)
